Data on eleven molecules can be found in paper PMC5603227 (ChemMedChem, 2017).

Broadly, the pIC50 is the negative decadic logarithm of the IC50, by convention in mol/L. In general, MIC refers to the lowest concentration that inhibits growth of the organism. The Papp A→B is how fast a substance crosses the layer from the apical side. As usually defined, the Papp B→A is the apparent permeability from the basolateral to the apical side of a cell layer. As usually defined, the efflux ratio is a quotient of directional permeabilities that is used to spot active efflux. What is called fraction unbound is free concentration divided by total concentration. As a reminder, the microsomal CLint is the capacity of the preparation to metabolise the compound, expressed as a volume cleared per time. A higher microsomal CLint goes with rapid turnover. As a reminder, the half-life is the time needed for the level to fall by half in the phase considered. Low readings indicate fast loss, high ones slow loss.

pIC50: −log10 of the molar value. Converted amounts (≈) assume the structure as drawn. “And” between values parts separate entries of the source, which are not always exact repeats. Equal entries are not always repeated. Where two headings read alike, the source gives them in different places.

The subject of one data set is HepG2 cells. The experiment in a line: cells. The format is cell-based, human.
The test system of data set [1] is Mtb H37Rv in infected THP-1 cells. As to the kind of experiment: Intracellular activity in infected THP-1 cells. The format is cell-based. Particulars: Mycobacterium tuberculosis, read-out: MIC against intracellular Mtb.
The test system of data set [2] is Mycobacterium tuberculosis H37Rv. As to the kind of experiment: Microplate alamar blue assay. The data set is classed as cell-based. A general note: Resazurin is reduced to fluorescent resorufin, in cell work by metabolically active cells.
The next data set deals with Mycobacterium avium. The experiment in a line: MIC against non-tuberculous mycobacteria. The format is cell-based. Particulars: read-out: MIC M. avium.
Data set [3] concerns THP-1 human monocytic cell line. The experiment in a line: THP-1 cytotoxicity. Particulars: macrophage cytotoxicity relative to intracellular MIC.
Another data set deals with CYP2C8 (Homo sapiens, UniProt P10632). As to the kind of experiment: biochemical.
The target in another data set is CYP2B6 (Homo sapiens, UniProt P20813). The experiment in a line: biochemical.
In a further data set the target is CYP2C19 (Homo sapiens, UniProt P33261). The experiment in a line: biochemical.
The nature of data set [4]: in vitro. Particulars: human; for Papp A→B at 1 h / Papp A→B at 2 h / Papp B→A at 1 h / Papp B→A at 2 h: Caco-2; for efflux ratio: Caco-2, Caco-2 Efflux Ratio (average).
The next data set concerns Caco-2 cell monolayer. Particulars: human.
The target in a further data set is CYP2D6 (Homo sapiens, UniProt P10635). The experiment in a line: biochemical.
The next data set has as its target CYP3A4 (Homo sapiens, UniProt P08684). The experiment in a line: biochemical. Particulars: Cytochrome P450 Inhibition IC50 CYP3A4.
The nature of data set [5]: in vitro. Particulars: plasma.
The target of another data set is CYP2C9 (Homo sapiens, UniProt P11712). The experiment in a line: biochemical.
Data set [6] can be described thus: in vitro. Particulars: human; for microsomal CLint: s9; for half-life: s9, Human liver S9 Microsomes T ½.
Data set [7] in a line: Relative aqueous solubility by turbidity in 7H9/ADC/Tween medium. Particulars: 200 μM highest concentration tested.
The mark [8] stands for this setting: Homo sapiens, HepG2, read-out: IC50 HepG2 Gal, galactose medium.
[9] abbreviates: Homo sapiens, HepG2, read-out: IC50 HepG2 Glu, glucose medium.

Sequence of CYP3A4 (P08684 whole entry): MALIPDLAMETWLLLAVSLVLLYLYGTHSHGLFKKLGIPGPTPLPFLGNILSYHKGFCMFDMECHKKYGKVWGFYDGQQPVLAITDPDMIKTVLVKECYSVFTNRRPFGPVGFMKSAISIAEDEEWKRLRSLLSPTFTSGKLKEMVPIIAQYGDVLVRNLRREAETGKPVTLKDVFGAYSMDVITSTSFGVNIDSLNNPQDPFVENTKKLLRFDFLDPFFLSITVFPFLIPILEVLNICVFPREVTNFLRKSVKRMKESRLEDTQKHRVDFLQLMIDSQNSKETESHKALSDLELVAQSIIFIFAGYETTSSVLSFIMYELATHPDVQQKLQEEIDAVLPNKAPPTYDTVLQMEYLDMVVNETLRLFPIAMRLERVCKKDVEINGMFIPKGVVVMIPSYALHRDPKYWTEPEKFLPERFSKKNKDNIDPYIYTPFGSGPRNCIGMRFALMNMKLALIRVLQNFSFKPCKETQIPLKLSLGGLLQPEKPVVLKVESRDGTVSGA
Sequence of CYP2C8 (P10632 whole entry): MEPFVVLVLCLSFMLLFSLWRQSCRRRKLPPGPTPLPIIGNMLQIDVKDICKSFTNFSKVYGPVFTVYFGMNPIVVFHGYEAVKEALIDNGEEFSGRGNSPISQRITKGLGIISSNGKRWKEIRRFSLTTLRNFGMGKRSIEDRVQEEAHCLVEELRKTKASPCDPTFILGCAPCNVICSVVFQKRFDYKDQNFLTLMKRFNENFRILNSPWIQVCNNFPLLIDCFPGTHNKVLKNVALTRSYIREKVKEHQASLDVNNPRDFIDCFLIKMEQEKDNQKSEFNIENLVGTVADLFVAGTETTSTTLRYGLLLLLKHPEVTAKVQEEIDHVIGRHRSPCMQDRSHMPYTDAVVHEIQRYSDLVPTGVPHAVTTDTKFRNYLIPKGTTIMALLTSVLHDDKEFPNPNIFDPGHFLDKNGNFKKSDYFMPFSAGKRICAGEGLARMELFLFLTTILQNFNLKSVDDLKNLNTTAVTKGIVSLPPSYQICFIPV
Sequence of CYP2B6 (P20813 whole entry): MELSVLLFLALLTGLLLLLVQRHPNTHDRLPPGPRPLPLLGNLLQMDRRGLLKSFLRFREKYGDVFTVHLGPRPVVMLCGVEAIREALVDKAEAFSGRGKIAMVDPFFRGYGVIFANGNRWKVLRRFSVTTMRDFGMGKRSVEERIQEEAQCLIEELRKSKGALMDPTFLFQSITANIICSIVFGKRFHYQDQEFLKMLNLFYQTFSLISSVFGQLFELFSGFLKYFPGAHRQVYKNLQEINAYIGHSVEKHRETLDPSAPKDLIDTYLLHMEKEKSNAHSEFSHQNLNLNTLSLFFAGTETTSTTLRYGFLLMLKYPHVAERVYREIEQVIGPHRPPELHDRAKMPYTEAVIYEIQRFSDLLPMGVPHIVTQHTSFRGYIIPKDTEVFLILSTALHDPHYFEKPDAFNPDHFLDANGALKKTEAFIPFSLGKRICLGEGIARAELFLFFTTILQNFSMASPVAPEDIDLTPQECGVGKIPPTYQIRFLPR
Sequence of CYP2D6 (P10635 whole entry): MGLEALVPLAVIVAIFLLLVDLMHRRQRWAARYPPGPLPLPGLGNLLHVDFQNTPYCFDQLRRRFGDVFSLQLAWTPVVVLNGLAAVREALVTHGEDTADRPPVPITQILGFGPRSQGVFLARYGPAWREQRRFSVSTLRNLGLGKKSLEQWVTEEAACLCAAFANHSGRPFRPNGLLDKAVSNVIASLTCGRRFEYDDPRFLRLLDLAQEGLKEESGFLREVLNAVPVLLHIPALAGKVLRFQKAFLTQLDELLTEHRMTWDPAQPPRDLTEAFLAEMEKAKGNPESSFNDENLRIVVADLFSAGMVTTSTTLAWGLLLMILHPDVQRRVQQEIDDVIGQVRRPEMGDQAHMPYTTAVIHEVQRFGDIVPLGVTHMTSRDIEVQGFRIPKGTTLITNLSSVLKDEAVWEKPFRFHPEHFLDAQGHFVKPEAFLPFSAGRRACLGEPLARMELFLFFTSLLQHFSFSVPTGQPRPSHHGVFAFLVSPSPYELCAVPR
Sequence of CYP2C19 (P33261 whole entry): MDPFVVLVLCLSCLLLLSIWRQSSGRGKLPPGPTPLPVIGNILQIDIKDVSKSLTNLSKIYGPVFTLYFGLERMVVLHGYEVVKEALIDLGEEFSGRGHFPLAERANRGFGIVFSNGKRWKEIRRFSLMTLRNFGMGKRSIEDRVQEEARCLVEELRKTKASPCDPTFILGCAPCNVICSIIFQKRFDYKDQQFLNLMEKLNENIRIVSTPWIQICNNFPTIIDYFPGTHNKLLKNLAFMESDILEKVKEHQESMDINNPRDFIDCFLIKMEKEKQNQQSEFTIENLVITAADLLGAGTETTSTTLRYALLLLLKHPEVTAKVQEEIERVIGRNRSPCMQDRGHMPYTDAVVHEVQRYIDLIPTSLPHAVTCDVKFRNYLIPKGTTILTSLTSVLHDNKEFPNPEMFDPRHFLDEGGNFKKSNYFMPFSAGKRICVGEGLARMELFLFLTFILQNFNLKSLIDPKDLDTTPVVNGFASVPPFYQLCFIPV
Sequence of CYP2C9 (P11712 whole entry): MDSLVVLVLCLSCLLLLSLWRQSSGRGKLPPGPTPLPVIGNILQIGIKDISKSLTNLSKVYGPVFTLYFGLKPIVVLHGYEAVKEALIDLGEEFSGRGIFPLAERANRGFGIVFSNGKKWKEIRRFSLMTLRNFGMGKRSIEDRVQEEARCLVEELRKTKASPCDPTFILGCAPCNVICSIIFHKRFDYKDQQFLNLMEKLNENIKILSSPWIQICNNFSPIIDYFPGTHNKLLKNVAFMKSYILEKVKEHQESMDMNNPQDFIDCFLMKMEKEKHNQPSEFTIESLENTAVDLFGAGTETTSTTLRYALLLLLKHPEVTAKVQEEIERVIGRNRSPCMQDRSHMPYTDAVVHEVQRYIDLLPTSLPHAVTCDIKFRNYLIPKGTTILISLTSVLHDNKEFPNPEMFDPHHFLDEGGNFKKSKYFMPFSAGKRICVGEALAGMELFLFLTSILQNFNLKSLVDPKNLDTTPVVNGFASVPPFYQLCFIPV

Take `Cc1ccn2c(C(=O)NCc3ccc(S(F)(F)(F)(F)F)cc3)c(C)nc2c1` [Compound 13, 2,7-Dimethyl-N-(4-(pentafluoro-λ^6-sulfanyl)benzyl)imidazo[1,2-a]pyridine-3-carboxamide]: the pIC50 in the data set with HepG2 cells (setting [8]) and in the data set with HepG2 cells (setting [9]) was less than 4.60 each time. Moreover, the values for the MIC in [1] and in [2] were less than 0.01 µM and less than 0.1 µM, respectively.
For the molecule `Cc1ccn2c(C(=O)NCc3cccc(S(F)(F)(F)(F)F)c3)c(C)nc2c1` [Compound 14, 2,7-Dimethyl-N-(3-(pentafluoro-λ^6-sulfanyl)benzyl)imidazo[1,2-a]pyridine-3-carboxamide], the pIC50 with HepG2 cells (setting [8]) and in the data set on HepG2 cells (setting [9]) was less than 4.60 throughout. Further, the MIC in the data set on Mycobacterium avium was found to be 200 µM (≈ 81.1 µg/mL).
On to `Cc1ccc2nc(C)c(C(=O)NCc3ccc(S(F)(F)(F)(F)F)cc3)n2c1` [Compound 15, 2,6-Dimethyl-N-(4-(pentafluoro-λ^6-sulfanyl)benzyl)imidazo[1,2-a]pyridine-3-carboxamide], for which the pIC50 with HepG2 cells (setting [8]) and with HepG2 cells (setting [9]) was less than 4.60 throughout. The minimal inhibitory concentration (MIC) was less than 0.01 µM in data set [1] and less than 0.1 µM in data set [2].
For the molecule `Cc1ccc2nc(C)c(C(=O)NCc3cccc(S(F)(F)(F)(F)F)c3)n2c1` [Compound 16, 2,6-Dimethyl-N-(3-(pentafluoro-λ^6-sulfanyl)benzyl)imidazo[1,2-a]pyridine-3-carboxamide], the pIC50 in the data set with HepG2 cells (setting [8]) and in the data set on HepG2 cells (setting [9]) was less than 4.60 in each case. Further, the MIC in data set [2] was less than 0.1 µM.
`CCc1nc2ccc(Cl)cn2c1C(=O)NCc1ccc(S(F)(F)(F)(F)F)cc1` [Compound 17, 6-Chloro-2-ethyl-N-(4-(pentafluoro-λ^6-sulfanyl)benzyl)imidazo[1,2-a]pyridine-3-carboxamide]: the pIC50 in the data set on HepG2 cells (setting [8]) and in the data set with HepG2 cells (setting [9]) was less than 4.60 in each case. In data set [3], the therapeutic window is more than 100. Also, the MIC in data set [1] is less than 0.01 µM.
For `CCc1nc2ccc(Cl)cn2c1C(=O)NCc1cccc(S(F)(F)(F)(F)F)c1` [Compound 18, 6-Chloro-2-ethyl-N-(3-(pentafluoro-λ^6-sulfanyl)benzyl)imidazo[1,2-a]pyridine-3-carboxamide], the pIC50 is 4.84 against CYP2C8; less than 4.60 in the data set on HepG2 cells (setting [8]); less than 4.60 with HepG2 cells (setting [9]); 5.08 against CYP2B6; 4.97 on CYP2C19; 5.19 at CYP2D6. Also, the pIC50 against CYP3A4 was 5.08 and < 4.70; against CYP2C9, 4.98. In the data set “in vitro [4]”, the apical-to-basolateral permeability (Papp A→B) at 1 h amounted to 1.09 ×10⁻⁶ cm/s. In addition, the apparent permeability from apical to basolateral (Papp A→B) at 2 h in “in vitro [4]” is 1.99 ×10⁻⁶ cm/s. The molecule also displayed a Papp B→A at 1 h in the data set “in vitro [4]” of 3.65 ×10⁻⁶ cm/s. Moreover, the basolateral-to-apical permeability (Papp B→A) at 2 h in the data set “in vitro [4]” was 5.61 ×10⁻⁶ cm/s. In addition, the efflux ratio in the data set “in vitro [4]” came to 3.2. The “Caco-2 Efflux Ratio (average)” value in the data set with Caco-2 cell monolayer was 3.16. Moreover, the fraction unbound in “in vitro [5]” came to 0.001. Besides, in “in vitro [6]”, the microsomal CLint came to 89.7 µL/min/mg. The molecule also had a half-life in “in vitro [6]” of 25.8 min.
As to `Cc1cn2c(C(=O)NCc3ccc(S(F)(F)(F)(F)F)cc3)c(C)nc2s1` [Compound 19, 2,6-Dimethyl-N-(4-(pentafluoro-λ^6-sulfanyl)benzyl)imidazo[2,1-b]thiazole-5-carboxamide], the “Human liver S9 Microsomes T ½” value amounted to 13.3 min. The negative-log IC50 (pIC50) against CYP2C8 was less than 4.70. The pIC50 in the data set on HepG2 cells (setting [8]) is less than 4.60. Also, the pIC50 with HepG2 cells (setting [9]) is less than 4.60. The same molecule had a pIC50 on CYP2B6 of less than 4.70. Further, on CYP2C19, the pIC50 is 4.87. In the data set “in vitro [4]”, this molecule showed a Papp A→B at 1 h of 6.35 ×10⁻⁶ cm/s, a Papp A→B at 2 h of 12.1 ×10⁻⁶ cm/s, a Papp B→A at 1 h of 8.35 ×10⁻⁶ cm/s and a Papp B→A at 2 h of 8.1 ×10⁻⁶ cm/s. Also, the efflux ratio in “in vitro [4]” is less than 1. For the same molecule, the minimum inhibitory concentration (MIC) in data set [2] was less than 0.1 µM. Further, the MIC with Mycobacterium avium is 200 µM (≈ 82.3 µg/mL). Further, in the data set on Caco-2 cell monolayer, the “Caco-2 Efflux Ratio (average)” value was found to be 0.988. The pIC50 at CYP2D6 is 4.87. The molecule further showed a pIC50 at CYP3A4 of less than 4.70. The fraction unbound in “in vitro [5]” is 0.003. Moreover, on CYP2C9, the pIC50 was 4.85. In the data set “in vitro [6]”, this molecule gave a microsomal CLint of 175 µL/min/mg and a half-life of 13.5 min.
As for `Cc1cn2c(C(=O)NCc3cccc(S(F)(F)(F)(F)F)c3)c(C)nc2s1` [Compound 20, 2,6-Dimethyl-N-(3-(pentafluoro-λ^6-sulfanyl)benzyl)imidazo[2,1-b]thiazole-5-carboxamide], the pIC50 in the data set with HepG2 cells (setting [8]) was 4.85; in the data set on HepG2 cells (setting [9]), less than 4.60; in the data set with HepG2 cells (read-out: IC50 HepG2 Gal, galactose medium) it was 4.85.
For `NNC(=O)c1ccncc1` [INH, Isoniazid, reference compound], the MIC in data set [1] stood at 0.37 µM (≈ 0.0507 µg/mL).
`CC(=O)NC[C@H]1CN(c2ccc(N3CCOCC3)c(F)c2)C(=O)O1` [LIN, linezolid, reference compound]: the negative logarithm of the IC50 (pIC50) in the data set on HepG2 cells (setting [8]) and with HepG2 cells (setting [9]) was less than 4.60 each time.
The molecule `CC/C(=C(/CC)c1ccc(O)cc1)c1ccc(O)cc1` [diethylstilbestrol] displayed an Aq. sol in [7] of 125 µM.
